From patent US20220408731A1, “MODIFIED ANTIMICROBIAL PEPTIDES” (priority 2021, published 2022) come the findings set out here.

One test deals with C. albicans. Briefly: Peptide or protein/Fluconazole combination, MIC and FICI. The settings on record: Candida albicans.
In a further test the test system is C. glabrata. Described as above. The conditions noted are these: Nakaseomyces glabratus.
The test system of a further test is C. parapsilosis. The test is described as follows: Antifungal MIC, CLSI M27/M38, half-strength potato dextrose broth. In kind it is cell-based, Candida parapsilosis. The settings on record: C. parapsilosis ATCC 22019; 24-72 hours. The method, then:
(§1) Testing for antifungal activity used half-strength potato dextrose broth for peptides and RPMI for comparator antifungals fluconazole and voriconazole. CLSI M27 and M38 methodologies used for to measure MICs. Minimal Inhibitory Concentration (MIC) is the concentration of the compound, protein, or peptide at which there is no significant growth of the microorganism relative to the growth of the microorganism in growth medium lacking the compound, protein, or peptide.
(§2) […] The concentration range for peptides in potato dextrose broth was 0.06-2 mcg/ml, the concentration range for fluconazole was 0.125-64 mcg/ml, and the concentration range for voriconazole was 0.03-16 mcg/ml. MICs were determined at 24-72 hours.

In the next test the test system is Aspergillus fumigatus. Described as above. It counts as cell-based. On the procedure: as §1, §2
A further test relates to C. krusei. The test is described as above. In kind it is cell-based. The settings on record: C. krusei ATCC 6258; 24-72 hours. On the procedure: as §1, §2
For another test, the system named is Candida albicans. Described as above. It counts as cell-based. The method, then:
as §1, §2

The next test deals with Candida auris. The test is described as above. In kind it is cell-based. The method, then:
as §1, §2

A further test relates to Fusarium (F. oxysporum). The description is as above. In kind it is cell-based. The method, then: as §1, §2
A further test concerns Fusarium (F. solani). The test is described as above. In kind it is cell-based. The settings on record: Fusarium F4 (F. solani). On the procedure:
as §1, §2

The next test deals with P. variotii. Described as above. In kind it is cell-based. The conditions noted are these: P. variotii MYA-363; 24-72 hours. On the procedure: as §1, §2
The next test has as its system Coccidioides sp. It counts as cell-based.
A further test has as its system F. oxysporum. Briefly: Antifungal MIC assay in SFM. In kind it is cell-based.
The next test has as its system P. capsici. Briefly: Antifungal MIC assay in SFM. In kind it is cell-based.

Structures are written as SMILES. Values after ≈ are worked out from the molar mass of the structure shown. Like-named read-outs stand apart in the source and are kept apart here. Peptide text beside a SMILES is read from it. Bounds are passed on as bounds.

Regarding `OC(Cn1cncn1)(Cn1cncn1)c1ccc(F)cc1F` [Fluconazole], the MIC in the test on C. albicans (read-out: MIC alone (μM)) amounted to 206 µM; with C. albicans (read-out: MIC alone μg/ml), 64 µg/mL; in the test on C. glabrata (read-out: MIC alone (μM)), 206 µM; in the test on C. glabrata (read-out: MIC alone μg/ml), 64 µg/mL.
In the case of `N=C(N)NCCC[C@H](NC(=O)CNC(=O)[C@@H](N)Cc1ccccc1)C(=O)N[C@@H](CS)C(=O)N[C@@H](CCCNC(=N)N)C(=O)NCC(=O)N[C@@H](Cc1ccccc1)C(=O)N[C@@H](CCCNC(=N)N)C(=O)N[C@@H](CCCNC(=N)N)C(=O)N[C@@H](CCCNC(=N)N)C(=O)N[C@@H](CS)C(=O)N[C@@H](Cc1ccccc1)C(=O)N[C@@H](CS)C(=O)N[C@@H](Cc1c[nH]c2ccccc12)C(=O)N[C@@H](CCCNC(=N)N)C(=O)N[C@@H](Cc1c[nH]c2ccccc12)C(=O)N[C@@H](CS)C(N)=O` [GMA4C_V4A] (H-FGRCRGFRRRCFCWRWC-NH2; N-terminus assumed), the “MIC 100%” value worked out at 8 µg/mL (≈ 3.49 µM) in the test on C. parapsilosis; 16 µg/mL (≈ 6.97 µM) against Aspergillus fumigatus (Aspergillus fumigatus AF293); 16 µg/mL (≈ 6.97 µM) in the test with Aspergillus fumigatus (Aspergillus fumigatus DI15-106); 32 µg/mL (≈ 13.9 µM) against Aspergillus fumigatus (Aspergillus fumigatus DI15-116); 8 µg/mL (≈ 3.49 µM) against C. krusei; 8 µg/mL (≈ 3.49 µM) with Candida albicans (Candida albicans ATCC 90028). Moreover, the “MIC 100%” value in the test with Candida albicans (Candida albicans CA3), in the test with Candida albicans (Candida albicans SC5314), against Candida auris (Candida auris DI17-46), against Candida auris (Candida auris DI17-47), against Candida auris (Candida auris DI17-48) and against Fusarium (F. oxysporum) (Fusarium F1 (F. oxysporum)) was 8 µg/mL (≈ 3.49 µM) throughout. In addition, the “MIC 100%” value was determined as 8 µg/mL (≈ 3.49 µM) against Fusarium (F. oxysporum) (Fusarium F2 (F. oxysporum)); 8 µg/mL (≈ 3.49 µM) against Fusarium (F. solani); 8 µg/mL (≈ 3.49 µM) in the test on P. variotii; 4 µg/mL (≈ 1.74 µM) in the test on Coccidioides sp. (Coccidioides sp. Cocci1); 16 µg/mL (≈ 6.97 µM) in the test with Coccidioides sp. (Coccidioides sp. Cocci2); 16 µg/mL (≈ 6.97 µM) in the test with Coccidioides sp. (Coccidioides sp. DI17-143). In the test on Botrytis cinerea, the “Fungal growth inhibition in presence of 2 mM CaCl2” value was “inhibit fungal growth”. Further, in the test on Botrytis cinerea, the “MIC (μM) Botrytis cinerea” value was determined as 1.5 µM (≈ 3.44 µg/mL). Also, the “MIC Values (μM) against B. cinerea” value in the test on Botrytis cinerea was found to be 1.5 µM (≈ 3.44 µg/mL). In addition, in the test with Botrytis cinerea, the “Potency relative to GMA4C_AC in presence of cations” value is on record as 2 fold. For the same compound, the “SFM + 2 mM CaCl2 MIC” value in the test with Botrytis cinerea was in the range of 3 to 6 µM. The “SFM + 100 mM KCl MIC” value with Botrytis cinerea is 1.5 µM. Besides, the “SFM + 100 mM NaCl MIC” value in the test on Botrytis cinerea was 1.5 µM. For the same compound, in the test on Botrytis cinerea, the “SFM MIC” value was in the range of 1.5 to 3 µM.
Turning to `C[C@@H](O)[C@H](NC(=O)[C@H](CS)NC(=O)[C@H](Cc1ccccc1)NC(=O)[C@H](CS)NC(=O)[C@H](CCCNC(=N)N)NC(=O)[C@H](CCCNC(=N)N)NC(=O)[C@H](CCCNC(=N)N)NC(=O)[C@H](Cc1ccccc1)NC(=O)CNC(=O)[C@H](CCCNC(=N)N)NC(=O)[C@H](CS)NC(=O)[C@H](CCCNC(=N)N)NC(=O)CNC(=O)CN)C(=O)N[C@H](C(=O)N[C@@H](Cc1c[nH]cn1)C(=O)N[C@@H](CS)C(N)=O)[C@@H](C)O` [GMA4C_AC, reference compound] (H-GGRCRGFRRRCFCTTHC-NH2; N-terminus assumed), the “F. oxysporum MIC” value in the test on F. oxysporum was 6 µM. Besides, in the test with P. capsici, the “P. capsici MIC” value came out at 1.5 µM. In the test on Botrytis cinerea, the “Antifungal activity in presence of 100 mM NaCl or 100 mM KCl” value was “retain their antifungal activity”, the “B. cinerea MIC” value lay within 1.5 to 3.0 µM, the “MIC (μM) Botrytis cinerea” value was determined as 3 µM (≈ 6.05 µg/mL) and the “MIC Values (μM) against B. cinerea” value was 3 µM (≈ 6.05 µg/mL). For the same compound, in the test with Botrytis cinerea, the “SFM + 2 mM CaCl2 MIC” value is >6 µM, the “SFM + 100 mM KCl MIC” value is 6 µM, the “SFM + 100 mM NaCl MIC” value amounted to 3 µM and the “SFM MIC” value is 3 µM. In the test with Fusarium graminearum, the “F. graminearum MIC” value came out at 3 µM, the “MIC (μM) Fusarium graminearum” value was determined as 3 µM (≈ 6.05 µg/mL) and the “MIC Values (μM) against F. graminearum” value turned out to be 6 µM (≈ 12.1 µg/mL).
